Experimental data from patent publication US20240197890A1, “FLAVONE DERIVATIVES AND USES IN TARGETING CK2-MEDIATED DISEASES AND CONDITIONS” (Salk Institute for Biological Studies, priority 2020, published 2024).

Columns and labels:
[1] = target: T1, CK2α1 (Homo sapiens, UniProt P68400); test: Thermal shift assay with Western blotting in astrocyte extracts; assay type: binding; conditions: extracts of iPSC-derived astrocytes
T1 construct: endogenous in cells
Experimental: Thermal shift assay and TPP. […] Protein concentration was determined by BCA assay (Bio-Rad), and lysates were diluted to 2 mg/mL. […] Reactions were incubated at rt for 30 min, after which each treated extract was divided into 10 aliquots of 95 μl in PCR strip tubes and stored on ice. […] A small aliquot (5 μl) of supernatant was saved for Western blotting, and the rest was snap frozen at −80 C and submitted for LC-MS/MS.

[2] = tested on: IκB S32; test: Immunoblot of IκB S32 in IL1-β-stimulated astrocytes; assay type: cell-based, human; conditions: after 5 hours
Experimental: Western blotting. […] Cells were dissociated with 1:1 Accutase:papain for 3 min at rt, pelleted for 5 min at 800 g, and washed twice with cold DPBS. Pellets were lysed with RIPA buffer (Sigma R0278) supplemented with Halt protease inhibitor cocktail (Thermo Fisher 78445) and clarified by centrifugation (16,000 g, 10 min, 4° C.). Protein concentration was determined by BCA assay (Thermo Fisher). Proteins were denatured in 1×LDS Buffer and 2.5% beta-mercaptoethanol (X) for 10 min at 70° C., separated on Bolt 4-12% Bis-Tris Plus polyacrylamide gels (Thermo Fisher), transferred to PVDF membranes using the iBlot 2 Dry Blotting System, and blocked with 0.1% casein-PBS (Bio-Rad) for 1 h at room temperature. The blots were incubated with primary antibodies overnight at 4° C. in PBS containing 0.1% casein and 0.2% Tween-20. Antibodies used: rabbit anti-CK2a1 (Bethyl #, 1:5000), rabbit anti-CK2a2 (Bethyl #, 1:5000), mouse anti-GAPDH (Fitzgerald #10-1501, 1:20,000), mouse anti-NF-KB (CST #6956S, 1:1000), pNF-KB S529 (TFS #14-9864-82, 1:100), LC3B (CST 2775, 1:1000), ACO2 (CST 6922, 1:1000), rabbit HMGB1 (Novus #NB1002322, 1:1000), mouse anti-IκBα (CST #4814S, 1:1000), mouse anti-IκBa pS32 (SC #8404, 1:500), HA-tag (Bethyl #A190-108A, 1:20000). […] The blots were imaged using the Odyssey CLx imaging system and blots were analyzed on the ImageStudio software (LI-COR). […]

[3] = tested on: CK2α1; test: CK2 levels in IL1-β-stimulated human primary astrocytes (Western blot); assay type: cell-based; conditions: after 5 hours
Experimental: Western blotting. […] Cells were dissociated with 1:1 Accutase:papain for 3 min at rt, pelleted for 5 min at 800 g, and washed twice with cold DPBS. Pellets were lysed with RIPA buffer (Sigma R0278) supplemented with Halt protease inhibitor cocktail (Thermo Fisher 78445) and clarified by centrifugation (16,000 g, 10 min, 4° C.). Protein concentration was determined by BCA assay (Thermo Fisher). Proteins were denatured in 1×LDS Buffer and 2.5% beta-mercaptoethanol (X) for 10 min at 70° C., separated on Bolt 4-12% Bis-Tris Plus polyacrylamide gels (Thermo Fisher), transferred to PVDF membranes using the iBlot 2 Dry Blotting System, and blocked with 0.1% casein-PBS (Bio-Rad) for 1 h at room temperature. The blots were incubated with primary antibodies overnight at 4° C. in PBS containing 0.1% casein and 0.2% Tween-20. Antibodies used: rabbit anti-CK2a1 (Bethyl #, 1:5000), rabbit anti-CK2a2 (Bethyl #, 1:5000), mouse anti-GAPDH (Fitzgerald #10-1501, 1:20,000), mouse anti-NF-KB (CST #6956S, 1:1000), pNF-KB S529 (TFS #14-9864-82, 1:100), LC3B (CST 2775, 1:1000), ACO2 (CST 6922, 1:1000), rabbit HMGB1 (Novus #NB1002322, 1:1000), mouse anti-IκBα (CST #4814S, 1:1000), mouse anti-IκBa pS32 (SC #8404, 1:500), HA-tag (Bethyl #A190-108A, 1:20000). […] The blots were imaged using the Odyssey CLx imaging system and blots were analyzed on the ImageStudio software (LI-COR).

[4] = tested on: CK2 Y255; test: Immunofluorescence of CK2 Y255 phosphorylation in nuclei of primary human astrocytes; assay type: cell-based; conditions: 20 μM, 5 h
Experimental: Immunotluorescence. […] After treatment, cells were fixed with 4% paraformaldehyde solution for 20 min at room temperature and washed 3× with DPBS for 10 min each. The cells were permeabilized using 5% horse serum and 10% Triton X in DPBS for 15 min at room temperature and blocked with 5% horse serum in PBS for 30 min at room temperature. Cells were incubated with primary antibodies in blocking buffer either overnight at 4° C. or for 2 hours at room temperature. After incubation, cells were washed 3× with PBS, blocked using 5% horse serum in PBS for 30 min at room temperature, and incubated with Cy3 red-labeled or AF488 green-labeled secondary antibodies diluted in blocking buffer for 1 hour at room temperature. The cells were washed once with PBS for 10 min, then counter-stained with DAPI. The cells were washed 3× with PBS and mounted with glass coverslips and Immu-Mount solution. Images were obtained with the Zeiss fluorescent microscope. […]

[5] = tested on: NF-κB pS529; test: Immunofluorescence of NF-κB and NF-κB pS529 in activated astrocytes; assay type: cell-based, human; conditions: after 1 h
Experimental: Immunotluorescence. […] After treatment, cells were fixed with 4% paraformaldehyde solution for 20 min at room temperature and washed 3× with DPBS for 10 min each. The cells were permeabilized using 5% horse serum and 10% Triton X in DPBS for 15 min at room temperature and blocked with 5% horse serum in PBS for 30 min at room temperature. Cells were incubated with primary antibodies in blocking buffer either overnight at 4° C. or for 2 hours at room temperature. After incubation, cells were washed 3× with PBS, blocked using 5% horse serum in PBS for 30 min at room temperature, and incubated with Cy3 red-labeled or AF488 green-labeled secondary antibodies diluted in blocking buffer for 1 hour at room temperature. The cells were washed once with PBS for 10 min, then counter-stained with DAPI. The cells were washed 3× with PBS and mounted with glass coverslips and Immu-Mount solution. Images were obtained with the Zeiss fluorescent microscope. The following primary antibodies were used: rabbit anti-NF-κB (1:400; CST), mouse anti-phospho NF-κB S529 (20 ug/ml; Thermo Fisher), rabbit anti-CK2A1 (1:500; Bethyl), mouse anti-IKb alpha (1:400; CST), mouse anti-phospho IKb alpha (1:50; Santa Cruz), rabbit anti-phospho CK2A1 (1:25; Thermo Fisher), rabbit anti-phospho Cdc37 (1:50; Novus), mouse anti-phospho NF-κB S529 (1:25; R&D), rabbit anti-Cdc37 (1:100; CST), mouse anti-SQSTM1 (1:50; Santa Cruz), anti rabbit-phospho NF-κB S536 (1:1600; CST), anti rabbit-Akt (pan) (1:400; CST), anti mouse-phospho Akt S473 (1:500; Sigma).
To investigate the potential effects of CK2 activity on NF-κB, NF-κB and NF-κB pS529 were measured by immunofluorescence in activated astrocytes. […] At this timepoint, NF-κB pS529 levels were similar across all treatments, possibly as a result of slower turnover by pNF-κB species.

[6] = tested on: IL6 and IL8 expression in astrocytes; test: Activation assay, ddPCR of cytokine expression in IL1-β-activated astrocytes; assay type: cell-based, human; conditions: astrocytes and microglia; FIG. 1D, FIG. 2C
Experimental: Activation assays and ddPCR. HCA or H1-derived astrocytes were treated with vehicle (DMSO) or 20 μM compound and stimulated with IL1-B 10 ng/mL for 5 h. Cells were scraped into RNA-Bee and total RNA was purified using the Direct-zol RNA kit (Zymo Research). RNA concentration was measured using Nanodrop and RNA was reverse transcribed into cDNA using the High Capacity cDNA Reverse Transcriptase Kit (Applied Biosystems). Reaction mixes consisting of TaqMan FAM probe (IL6, IL8, CSNK2A1, CSNK2A2), control TaqMan ACTB-VIC probe (TFS 4326315E), ddPCR Supermix for Probes (Bio-Rad 186-3024), and cDNA were formed into oil droplets using the QX200 Droplet Generator. After amplification (Bio-Rad C1000 Touch Thermal Cycler) according to manufacturer's instructions, the plate was read in the QX200 Droplet Reader.

T1 sequence (P68400 whole entry): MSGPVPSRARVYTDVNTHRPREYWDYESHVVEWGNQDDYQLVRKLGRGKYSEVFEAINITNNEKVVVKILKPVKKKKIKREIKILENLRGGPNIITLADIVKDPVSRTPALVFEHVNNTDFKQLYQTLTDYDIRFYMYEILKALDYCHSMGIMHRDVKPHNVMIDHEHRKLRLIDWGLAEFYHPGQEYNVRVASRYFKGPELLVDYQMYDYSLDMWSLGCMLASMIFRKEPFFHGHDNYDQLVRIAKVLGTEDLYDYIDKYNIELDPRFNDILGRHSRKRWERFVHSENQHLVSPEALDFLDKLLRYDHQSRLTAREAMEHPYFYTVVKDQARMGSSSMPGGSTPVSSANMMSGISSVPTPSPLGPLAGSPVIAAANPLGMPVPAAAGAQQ

COc1cc(-c2cc(=O)c3c(O)cc(O)cc3o2)ccc1O [CHR, chrysoeriol]
binding / thermal stabilization of CK2a [1]: dose-dependently stabilized | binding / thermal stabilization of CK2a ([1]; listed as chrysoeriol): bind CK2a | IκB S32 levels [2]: decreased | CK2α1 levels [3]: reduced to baseline | pCK2/CK2 in nuclei [4]: reduced | IL1-β-induced increase of NF-κB nuclear intensity [5]: blocked | dose dependence of anti-inflammatory effects [6]: dose-dependent
